Where a name gives a salt, the structure may show the parent alone. Read-outs that look alike come from different tables or passages of the source. Each block holds one compound with its values, some of them ahead of it.
Tests used:
[1] = Solubility in simulated biological fluid (FaSSGF and FaSSIF) at 37° C., HPLC; pH of filtrate, XRPD of filter cake; assay type: physicochemical; settings: for times more soluble than the free acid (Form II): 0.5-hour mark; for pH (0 h) / Concentration / pH (24 h) / XRPD (filter cake, crystal form): 37° C.; for Concentration / pH (24 h) / XRPD (filter cake, crystal form): listed as K salt Form III; for pH (24 h): filtrate; for XRPD (filter cake, crystal form): up to 24 hours
Procedure: (§1) Approximately between 15 mg and 24 mg of sample was suspended in 5 mL or 8 mL of FaSSGF or FaSSIF, respectively. The resulting suspension was shaken at 700 rpm with a QQMSC-100 shaker at 37° C. The suspension was sampled and filtered at certain time intervals, which was achieved by sampling 1000 μL of each suspension which was then filtered and diluted, diluting the resulting filtrate for HPLC analysis to assess solubility. The pH of the filtrate was measured, and the filter cake was analyzed by XRPD.
as §1, with “Approximately” for “Approximately between”, “mg to” for “mg and”, “5” for “5 mL”, “suspension” for “suspension which”, “was” for “was then”
Approximately 15 mg to 24 mg of sample was suspended in 5 or 8 mL of FaSSGF or FaSSIF, respectively. The resulting suspension was shaken at 700 rpm with a QQMSC-100 shaker at 37° C. The suspension was sampled and filtered in certain time interval, which was achieved by sampling 1000 μL of each suspension was filtered and diluted, diluting the resulting filtrate for HPLC analysis to assess solubility. The pH of the filtrate was measured, and the filter cake was analyzed by XRPD.

[2] = Mechanical (grinding) and tableting treatment of Form III of the potassium salt (XRPD); assay type: physicochemical
Procedure: Form III of the potassium salt was ground manually (e.g., using a mortar and pestle) for 5 minutes. The ground sample was then analyzed by XRPD. No change in the crystal form was observed.
Tableting treatment of Form III of the potassium salt was conducted at 35 MPa pressure for 10 seconds using a tablet machine (HY-12, Tianjin Tianguang Optical Instrument Co., Ltd). The resulting solid was analyzed by XRPD. No change in the crystal form was observed after the tableting treatment. However, the crystallinity of Form III of the potassium salt decreased after the pressure test.

[3] = Solubility testing in organic solvents and water (visual, room temperature); assay type: physicochemical
[4] = Solid-state stability (60° C./closed and 40° C./75% relative humidity open, up to seven days; HPLC purity, XRPD); assay type: physicochemical
Procedure: HPLC method for stability and solubility testing is listed below.
• Column: Ascentis® Express C18 4.6*150 mm*2.7 μm • Mobile Phase A: 0.05% trifluoroacetic acid in water • Mobile Phase B: Methanol • Gradient (T/B %): 0/10, 10/100, 13.5/10, 15/10 • Column Temperature: 40° C. • Detector: DAD; 220 nm • Flow rate: 1.0 mL/min • Injection volume: 1 μL • Concentration: 1 mg/mL • Run time: 15 minutes • Diluent: Methanol:Water 9:1 (v/v)
The solid-state stability of Form III of the potassium salt was performed using the following protocol: • (1) A sample of Form III of the potassium salt was placed at 60° C./closed and 40° C./75% relative humidity (open) conditions for up to seven days. At the onset of the test (day 0) and day 7 of the test, the sample was dissolved in a diluent to prepare a 1 mg/mL solution for HPLC purity analysis. The solid sample was analyzed by XRPD to assess the crystal form of each solid at day 7. […] The XRPD data confirmed the physicochemical stability of Form III of the potassium salt under both closed and open conditions. […]

[5] = Pharmacokinetic study of HC-7366 via oral (PO) administration of different formulations in beagle dogs; assay type: in vivo; settings: dog, plasma, 7.5 mg/kg, PO 7.5 mpk, male beagle dogs
Procedure: 10 mL of 0.001 N HCl was used to wash the gavage catheter for each animal.

[6] = Slurry study of potassium salt Form III in organic solvents and water (XRPD); assay type: physicochemical; settings: for Result at 3 days (XRPD): slurry in THF
[7] = Pharmacokinetics of HC-7366 in male and female beagle dogs following IV and oral administration of HC-7366-K (plasma and urine, LC-MS/MS); assay type: in vivo, Beagle Dog; parameters: AUC(0-t)/D: unit not given here

- times more soluble than the free acid (Form II) ([1]; FaSSGF): about 230 times
- pH (0 h) ([1]; FaSSGF): 1.60
- Concentration ([1]; FaSSGF, 0.5 h): 46.8 µg/mL
- Concentration ([1]; FaSSGF, 2.0 h): 4.6 µg/mL
- pH (24 h) ([1]; FaSSGF): 1.66
- XRPD (filter cake, crystal form) ([1]; FaSSGF): Changed
- times more soluble than the free acid (Form II) ([1]; FaSSIF): about 100 times
- pH (0 h) ([1]; FaSSIF): 6.50
- Concentration ([1]; FaSSIF, 0.25 h): 155 µg/mL
- Concentration ([1]; FaSSIF, 0.5 h): 164 µg/mL
- Concentration ([1]; FaSSIF, 0.75 h): 160 µg/mL
- Concentration ([1]; FaSSIF, 1.0 h): 155 µg/mL
- Concentration ([1]; FaSSIF, 2.0 h): 14.5 µg/mL
- pH (24 h) ([1]; FaSSIF): 6.83
- XRPD (filter cake, crystal form) ([1]; FaSSIF): Changed
- Crystallinity ([2]; after tableting treatment at 35 MPa pressure for 10 seconds): decreased
- Change in the crystal form (XRPD) ([2]; ground manually for 5 minutes): No change
- Change in the crystal form (XRPD) ([2]; tableting treatment at 35 MPa pressure for 10 seconds): No change
- Solubility ([3]; Acetone, listed as Form III of the Potassium Salt): ~500 µg/mL
- Solubility ([3]; BuOH, 24 °C, organic solvent or mixture, thermodynamic from solid, BuOH, read-out: Solubility): < 100 µg/mL
- Solubility ([3]; DCM, listed as Form III of the Potassium Salt): <100 µg/mL
- Solubility ([3]; DMSO, 24 °C, organic solvent or mixture, thermodynamic from solid, DMSO, read-out: Solubility): > 180000 µg/mL
- Solubility ([3]; DMSO, listed as Form III of the Potassium Salt): >180000 µg/mL
- Solubility ([3]; EtOAc, listed as Form III of the Potassium Salt): <100 µg/mL
- Solubility ([3]; EtOH, listed as Form III of the Potassium Salt): ~4000 µg/mL
- Solubility ([3]; H2O (water), listed as Form III of the Potassium Salt): ~1000 µg/mL
- Solubility ([3]; IPA, listed as Form III of the Potassium Salt): <100 µg/mL
- Solubility ([3]; IPAc, listed as Form III of the Potassium Salt): <100 µg/mL
- Solubility ([3]; MEK, listed as Form III of the Potassium Salt): <100 µg/mL
- Solubility ([3]; MTBE, 24 °C, organic solvent or mixture, thermodynamic from solid, MTBE, read-out: Solubility): < 100 µg/mL
- Solubility ([3]; MeCN, listed as Form III of the Potassium Salt): <100 µg/mL
- Solubility ([3]; MeOH, listed as Form III of the Potassium Salt): >40000 µg/mL
- Solubility ([3]; MeOH, listed as Form III of the potassium salt): > 40000 µg/mL
- Solubility ([3]; THF, listed as Form III of the Potassium Salt): <100 µg/mL
- Solubility ([3]; heptane, 24 °C, organic solvent or mixture, thermodynamic from solid, Heptane, read-out: Solubility): < 100 µg/mL
- Purity (Area %) 220 nm ([4]; 0 day): 99.90 Area %
- XRPD After 7 Days ([4]; 40° C./75% RH (open)): Unchanged
- Purity (Area %) 220 nm ([4]; 40° C./75% RH (open), 7 days): 99.90 Area %
- Purity (Area %) 220 nm ([4]; 60° C./closed, 7 days): 99.90 Area %
- XRPD After 7 Days ([4]; 60° C./closed, 7 days): Unchanged
- bioavailability ([5]; in a capsule, n=3): ~50%
- Result at 3 days (XRPD) ([6]; 25° C.): Potassium salt Form III
- Result at 3 days (XRPD) ([6]; 50° C.): Potassium salt Form III
- Result (XRPD) ([6]; slurry in Water, 25° C., 5 days, repeated aqueous slurry experiments): Potassium salt Form III (5 days)
Compound: CNC(=O)c1ncn2cc(-c3c(F)ccc(NS(=O)(=O)c4cc(Cl)cnc4OC)c3F)ncc12 [Potassium salt Form III, 6-(3-((5-chloro-2-methoxypyridine)-3-sulfonamido)-2,6-difluorophenyl)-N-methylimidazo[1,5-a]pyrazine-1-carboxamide]
- physical and chemical stability ([4]; both closed (60° C.) and open (40° C./75% RH) conditions for seven days): maintained physical and chemical stability

- Tmax [5]: 4 h
- AUC(0-t)/D ([7]; Female Beagle dog, IV 0.5 mg/kg, mean n = 3): 162284
- t1/2 ([7]; Male Beagle dogs, IV 0.5 mg/kg, HC-7366 in plasma, mean n = 3): 14 h
- clearance ([7]; dog, plasma, male beagle dogs, intravenous 0.5 mg/kg, read-out: Clearance (CL)): 6 mL/h/kg
- Vd ([7]; dog, plasma, male beagle dogs, intravenous 0.5 mg/kg, read-out: volume of distribution at steady state (Vss)): 0.107 L/kg
- CL renal ([7]; dog, urine and plasma, female Beagle dogs, intravenous 0.5 mg/kg, read-out: Renal Clearance): 0.0066 mL/h/kg
Compound: CNC(=O)c1ncn2cc(-c3c(F)ccc(NS(=O)(=O)c4cc(Cl)cnc4OC)c3F)ncc12 [HC-7366-K, 6-(3-((5-chloro-2-methoxypyridine)-3-sulfonamido)-2,6-difluorophenyl)-N-methylimidazo[1,5-a]pyrazine-1-carboxamide]
